Results as given in patent publication US12435091B2, “RNA-binding protein multimerization inhibitors and methods of use thereof” (THE UAB RESEARCH FOUNDATION, priority 2020, dated 2025).
In brackets after ≈: the same amount, converted by molar mass. Like-named read-outs stand apart in the source and are kept apart here.

Key:
[1] = molecular target: T1, HuR (Homo sapiens, UniProt Q15717); experiment: cell-based split firefly luciferase-HuR dimerization assay; conditions: for IC50: read-out: HuR IC50
T1 construct: expressed in transfected cells; host or cells: U251 glioma cells, doxycycline-inducible constructs
T1 sequence (Q15717 whole entry): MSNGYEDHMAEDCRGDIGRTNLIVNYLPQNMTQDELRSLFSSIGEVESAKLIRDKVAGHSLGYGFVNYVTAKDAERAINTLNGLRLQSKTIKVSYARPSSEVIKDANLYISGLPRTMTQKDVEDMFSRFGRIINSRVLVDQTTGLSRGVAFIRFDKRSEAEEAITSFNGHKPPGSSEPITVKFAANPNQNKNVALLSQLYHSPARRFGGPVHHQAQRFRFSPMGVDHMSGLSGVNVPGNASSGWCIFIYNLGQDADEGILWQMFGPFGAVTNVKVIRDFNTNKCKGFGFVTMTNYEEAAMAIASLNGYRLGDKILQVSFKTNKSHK
Experimental: (§1) The oncogenic activity of HuR is driven by subcellular localization into the cytoplasm and formation of multimers of HuR. To develop cell based assays to characterize the ability of small molecules to disrupt this process, a split luciferase assay detecting the formation of HuR dimers was developed. The assays were performed in 96 well plates with clear bottom (Corning Inc., Corning, NY). Cells with designed constructs (30,000-50,000 in number) were plated per well; the constructs were induced by doxycycline (0.75 ug/ml) for 48 hours. The evaluated compounds at different concentrations and the corresponding vehicle as the control were administered for 6 hours. The luminescence signals were detected by using InfinitiM200 plate reader (TECAN, Morrisville, NC) in the presence of the luciferase substrate luciferin (D-Luciferin, potassium salt), which was purchased from GoldBio (St Louis, MO). A multichannel pipette (XL 3000I™, Denville Scientific, South Plainfield, NJ) was used in all procedures to ensure the experiment quality.
The assay used the coding sequence of HuR in frame with the N-terminus of firefly luciferase or the C-terminus as depicted in FIG. 2A. When HuR forms dimers in this case, luciferase is generated and with luciferin present, luminescence is generated.
(§2) Squares represent luminescence signal from reporter representing HuR dimers (U251 cells co-expressing HuR-Nluc and HuR-Cluc constructs); circles represent luminescence signal from control reporter (U251 cells expressing Fluc construct). Results are shown as mean+SD.

[2] = test system: U251 cells expressing Fluc construct; experiment: control Fluc (full length luciferase) reporter assay in U251 cells; type: cell-based; conditions: Homo sapiens, U-251, 6 h, read-out: Fluc Imax % Inh; for inhibition at 50 µM: Concn 50 uM
Experimental: as §1, with “quality. […]” for “quality.”
as §2

[3] = aqueous solubility at pH 7.4; type: physicochemical; conditions: for solubility: aqueous medium at pH 7.4, pH 7.4, aqueous buffer, read-out: Sol @ pH 7.4
Experimental: (§4) Selected compounds were assessed for their aqueous solubility, Log D and mouse and human liver microsomal stability.

[4] = Log D at pH 7.4; type: physicochemical
Experimental: as §4

[5] = Mouse liver microsomal stability in vitro; type: in vitro ADME; conditions: liver microsomes, read-out: MLM t1/2
Experimental: as §4

[6] = in vitro; conditions: human, liver microsomes
Experimental: as §4

[7] = molecular target: AAK1 (Homo sapiens, UniProt Q2M2I8); experiment: SelectScreen kinase profiling, LanthaScreen Binding
Sequence of AAK1 (Q2M2I8 whole entry): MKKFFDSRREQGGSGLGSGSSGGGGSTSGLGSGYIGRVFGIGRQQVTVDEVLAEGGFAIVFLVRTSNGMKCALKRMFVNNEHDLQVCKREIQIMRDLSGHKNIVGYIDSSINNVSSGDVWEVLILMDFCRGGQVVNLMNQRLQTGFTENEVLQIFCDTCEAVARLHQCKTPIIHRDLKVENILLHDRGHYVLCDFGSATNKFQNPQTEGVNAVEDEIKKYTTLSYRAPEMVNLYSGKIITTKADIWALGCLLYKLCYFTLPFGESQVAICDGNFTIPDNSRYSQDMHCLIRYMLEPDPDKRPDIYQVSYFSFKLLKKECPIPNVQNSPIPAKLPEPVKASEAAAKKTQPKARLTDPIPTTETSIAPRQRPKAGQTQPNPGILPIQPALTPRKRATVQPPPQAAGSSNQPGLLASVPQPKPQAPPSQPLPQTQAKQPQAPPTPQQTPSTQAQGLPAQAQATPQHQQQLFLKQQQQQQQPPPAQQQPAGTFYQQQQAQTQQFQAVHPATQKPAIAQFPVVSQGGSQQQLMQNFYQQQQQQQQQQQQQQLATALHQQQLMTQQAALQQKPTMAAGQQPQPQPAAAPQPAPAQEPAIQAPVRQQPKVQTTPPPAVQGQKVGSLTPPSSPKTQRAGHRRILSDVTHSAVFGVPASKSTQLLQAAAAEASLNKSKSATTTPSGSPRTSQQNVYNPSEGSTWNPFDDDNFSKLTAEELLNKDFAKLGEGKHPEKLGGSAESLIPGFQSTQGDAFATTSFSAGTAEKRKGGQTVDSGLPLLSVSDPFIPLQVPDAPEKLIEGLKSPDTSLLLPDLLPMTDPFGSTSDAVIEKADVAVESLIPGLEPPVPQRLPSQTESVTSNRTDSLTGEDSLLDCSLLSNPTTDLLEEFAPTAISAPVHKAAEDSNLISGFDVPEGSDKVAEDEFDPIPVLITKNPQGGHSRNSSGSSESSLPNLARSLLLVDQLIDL
Experimental: (§3) The kinase inhibitory potentials of compounds as described herein (e.g., SRI-42127 and SRI-41664) were evaluated by ThermoFisher Scientific's SelectScreen™ Kinase Profiling Service. The following kinase inhibitory assays were utilized: ZLYTE (Madison, WI) for NTRK1, PIM1, and cMET kinases; LanthaScreen Binding (Madison, WI) for AAK1 kinase; and Adapta (Madison, WI) for IRAK1 kinase.

[8] = molecular target: IRAK1 (Homo sapiens, UniProt P51617); experiment: SelectScreen kinase profiling, Adapta; type: biochemical
Sequence of IRAK1 (P51617 whole entry): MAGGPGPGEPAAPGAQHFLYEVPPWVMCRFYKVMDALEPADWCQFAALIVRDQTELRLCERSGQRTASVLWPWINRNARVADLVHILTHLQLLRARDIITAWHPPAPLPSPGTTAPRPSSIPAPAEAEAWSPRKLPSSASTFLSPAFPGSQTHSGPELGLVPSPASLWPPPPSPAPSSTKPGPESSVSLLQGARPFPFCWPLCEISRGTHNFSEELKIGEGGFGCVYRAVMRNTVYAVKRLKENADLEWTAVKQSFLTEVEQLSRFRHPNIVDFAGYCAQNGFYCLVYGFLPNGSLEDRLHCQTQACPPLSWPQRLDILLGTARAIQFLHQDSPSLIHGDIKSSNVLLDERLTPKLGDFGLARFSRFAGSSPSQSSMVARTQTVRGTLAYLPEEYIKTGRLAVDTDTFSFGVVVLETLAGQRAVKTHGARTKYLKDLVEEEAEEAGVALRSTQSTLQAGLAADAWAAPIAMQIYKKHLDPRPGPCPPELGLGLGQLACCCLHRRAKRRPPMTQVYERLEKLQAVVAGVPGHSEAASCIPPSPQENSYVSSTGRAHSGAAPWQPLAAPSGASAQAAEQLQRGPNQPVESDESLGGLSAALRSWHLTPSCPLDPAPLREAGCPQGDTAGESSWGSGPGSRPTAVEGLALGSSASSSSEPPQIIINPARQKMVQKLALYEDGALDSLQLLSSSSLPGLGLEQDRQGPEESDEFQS
Experimental: as §3

[9] = molecular target: PIM1 (Homo sapiens, UniProt P11309); experiment: SelectScreen kinase profiling, ZLYTE; type: biochemical
Sequence of PIM1 (P11309 whole entry): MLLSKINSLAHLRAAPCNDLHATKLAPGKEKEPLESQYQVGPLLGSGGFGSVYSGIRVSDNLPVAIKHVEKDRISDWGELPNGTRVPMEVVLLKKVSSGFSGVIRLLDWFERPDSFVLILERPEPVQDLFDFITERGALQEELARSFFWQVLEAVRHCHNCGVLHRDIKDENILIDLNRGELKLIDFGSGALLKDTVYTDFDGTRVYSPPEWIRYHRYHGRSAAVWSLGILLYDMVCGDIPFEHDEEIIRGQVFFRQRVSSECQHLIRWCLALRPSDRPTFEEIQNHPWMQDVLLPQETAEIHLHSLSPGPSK
Experimental: as §3

[10] = molecular target: TRKA (NTRK1) (Homo sapiens, UniProt P04629); experiment: SelectScreen kinase profiling, ZLYTE; type: biochemical
Sequence of TRKA (NTRK1) (P04629 33-796): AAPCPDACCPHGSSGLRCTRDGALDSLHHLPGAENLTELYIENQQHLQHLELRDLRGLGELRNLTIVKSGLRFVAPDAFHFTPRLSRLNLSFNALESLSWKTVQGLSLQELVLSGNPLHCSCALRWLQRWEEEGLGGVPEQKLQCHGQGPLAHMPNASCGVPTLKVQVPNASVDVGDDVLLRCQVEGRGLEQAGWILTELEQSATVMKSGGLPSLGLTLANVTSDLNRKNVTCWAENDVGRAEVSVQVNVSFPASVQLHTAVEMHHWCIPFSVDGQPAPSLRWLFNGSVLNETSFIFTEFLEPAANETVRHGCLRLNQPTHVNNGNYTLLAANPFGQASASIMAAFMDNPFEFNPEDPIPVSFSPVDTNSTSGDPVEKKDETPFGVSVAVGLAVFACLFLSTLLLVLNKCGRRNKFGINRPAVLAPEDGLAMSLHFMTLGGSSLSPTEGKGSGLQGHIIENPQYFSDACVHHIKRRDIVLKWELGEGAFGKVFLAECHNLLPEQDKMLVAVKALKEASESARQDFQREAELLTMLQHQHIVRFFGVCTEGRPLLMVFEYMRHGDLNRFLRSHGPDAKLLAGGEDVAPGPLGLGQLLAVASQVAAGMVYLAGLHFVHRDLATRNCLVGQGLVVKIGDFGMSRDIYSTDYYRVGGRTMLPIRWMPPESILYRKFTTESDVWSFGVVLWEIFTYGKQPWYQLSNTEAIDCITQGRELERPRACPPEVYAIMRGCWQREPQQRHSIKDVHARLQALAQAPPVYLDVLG
Experimental: as §3

[11] = molecular target: cMET (Homo sapiens, UniProt P08581); experiment: SelectScreen kinase profiling, ZLYTE; type: biochemical
Sequence of cMET (P08581 25-1390): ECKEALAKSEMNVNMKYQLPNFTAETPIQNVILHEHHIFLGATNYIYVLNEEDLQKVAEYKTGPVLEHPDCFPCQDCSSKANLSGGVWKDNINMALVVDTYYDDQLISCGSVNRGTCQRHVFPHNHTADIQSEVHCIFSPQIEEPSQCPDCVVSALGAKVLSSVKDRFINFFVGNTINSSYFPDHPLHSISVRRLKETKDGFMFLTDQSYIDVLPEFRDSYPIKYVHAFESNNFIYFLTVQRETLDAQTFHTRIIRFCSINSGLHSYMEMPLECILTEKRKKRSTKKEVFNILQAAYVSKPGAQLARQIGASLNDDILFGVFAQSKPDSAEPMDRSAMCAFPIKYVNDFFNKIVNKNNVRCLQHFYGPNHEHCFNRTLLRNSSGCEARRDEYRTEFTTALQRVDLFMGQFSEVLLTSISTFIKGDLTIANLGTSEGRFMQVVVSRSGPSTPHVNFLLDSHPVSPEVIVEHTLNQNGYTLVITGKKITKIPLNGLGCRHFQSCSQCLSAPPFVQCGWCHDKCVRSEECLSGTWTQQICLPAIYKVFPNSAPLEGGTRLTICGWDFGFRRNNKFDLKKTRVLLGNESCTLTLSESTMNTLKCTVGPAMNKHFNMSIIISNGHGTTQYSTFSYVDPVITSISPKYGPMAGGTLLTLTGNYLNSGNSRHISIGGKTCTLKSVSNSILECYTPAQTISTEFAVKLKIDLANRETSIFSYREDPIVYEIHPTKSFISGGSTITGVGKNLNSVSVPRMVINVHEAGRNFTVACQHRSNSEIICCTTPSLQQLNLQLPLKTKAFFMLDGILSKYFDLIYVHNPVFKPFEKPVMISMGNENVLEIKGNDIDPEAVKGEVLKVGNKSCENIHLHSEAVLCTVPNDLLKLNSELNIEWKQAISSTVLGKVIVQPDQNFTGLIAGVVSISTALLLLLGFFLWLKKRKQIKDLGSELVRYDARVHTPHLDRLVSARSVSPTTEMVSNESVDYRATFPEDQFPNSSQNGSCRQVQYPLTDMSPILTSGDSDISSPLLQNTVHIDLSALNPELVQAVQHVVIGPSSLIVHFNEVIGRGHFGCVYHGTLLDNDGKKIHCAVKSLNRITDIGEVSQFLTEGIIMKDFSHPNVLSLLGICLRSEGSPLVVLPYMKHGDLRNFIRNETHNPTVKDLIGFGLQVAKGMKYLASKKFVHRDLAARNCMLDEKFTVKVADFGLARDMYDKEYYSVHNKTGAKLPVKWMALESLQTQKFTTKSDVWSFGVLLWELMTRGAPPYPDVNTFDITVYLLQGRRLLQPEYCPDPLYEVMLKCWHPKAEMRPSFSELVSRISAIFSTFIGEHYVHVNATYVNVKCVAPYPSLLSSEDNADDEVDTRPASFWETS
Experimental: as §3

[12] = U251 cells co-expressing HuR-Nluc and HuR-Cluc, 6 hours of treatment
[13] = split luciferase HuR dimerization assay, compounds administered for 6 hours

SMILES	HuR N/C Imax % Inh ([1]; Concn 50 uM) [%]	IC50 [1, 12] [nM]	aqueous solubility (in words) [3]	IC50 [1, 13] [nM]	solubility [3] [µM]	logD [4]	half-life [5] [min]	half-life [6] [min]	HuR N/C Imax % Inh ([1]; Concn 100 uM) [%]	HuR inhibition activity (in words) [1]	IC50 [7] [nM]	IC50 [8] [nM]	IC50 [9] [nM]	IC50 [10] [nM]	IC50 [11] [nM]	HuR IC50 [1, 13]	inhibition at 50 µM [2] [%]	inhibition at 100 µM ([2]; Concn 100 uM) [%]
c1cc2cn[nH]c2cc1-n1nnc2cnc(NC3CCOCC3)nc21 [Compound 4, 3-(1H-Indazol-6-yl)-N-(tetrahydro-2H-pyran-4-yl)-3H-[1,2,3]triazolo[4,5-d]pyrimidin-5-amine]	85	5000	improved aqueous solubility														36	
CN(c1ccc2ncc(-c3ccc4cc[nH]c4c3)n2n1)C1CCOCC1 [Compound 13]				28000	12.8 (≈ 4.45 µg/mL)	2.2	5.6	6.8										
FC1(F)CCC(Nc2ccc3ncc(-c4ccc5cn[nH]c5c4)n3n2)CC1 [Compound 23, N-(4,4-Difluorocyclohexyl)-3-(1H-indazol-6-yl)imidazo[1,2-b]pyridazin-6-amine]	92	2800		2800	2.1 (≈ 0.774 µg/mL)	> 4.23	3.9	27.3									39	
CCCN(C)c1ccc2ncc(-c3ccc4cn[nH]c4c3)n2n1 [Compound 24, 3-(1H-Indazol-6-yl)-N-methyl-N-propylimidazo[1,2-b]pyridazin-6-amine]		2200		2200	10.9 (≈ 3.34 µg/mL)	> 4.18	3.1	9.7	93									10
CCN(c1ccc2ncc(-c3ccc4cn[nH]c4c3)n2n1)C1CCOCC1 [Compound 26]				> 50000						inactive	15700	> 30000	> 30000	> 30000	> 30000			
CCCN(c1ccc2ncc(-c3ccc4cn[nH]c4c3)n2n1)C1CCOCC1 [Compound 27]				> 50000	65.3 (≈ 24.6 µg/mL)	0.4	9.8	> 300		inactive	13000	> 30000	> 30000	> 30000	> 30000			
CN(c1ccc2ncc(-c3ccc4cn[nH]c4c3)n2n1)C1CCC(F)(F)CC1 [Compound 29]					77.3 (≈ 29.6 µg/mL)	0.9	15.3	82.8								Insoluble^b		
CCCN(C)c1ccc2ncc(-c3ccc4cnn(C)c4c3)n2n1 [Compound 30, N-Methyl-3-(1-methyl-1H-indazol-6-yl)-N-propylimidazo[1,2-b]pyridazin-6-amine]	91	2200		2200	2.5 (≈ 0.801 µg/mL)	> 4.55	1.3	7.9									36	
Cc1n[nH]c2cc(-c3cnc4ccc(N(C)C5CCOCC5)nn34)ccc12 [Compound 32, N-Methyl-3-(3-methyl-1H-indazol-6-yl)-N-(tetrahydro-2H-pyran-4-yl)imidazo[1,2-b]pyridazin-6-amine]				> 50000	< 1	> 4.35	7.3	9										
CCCN(C)c1ccc2ncc(-c3ccc4[nH]nc(C(C)=O)c4c3)n2n1 [Compound 53, 1-(5-(6-(Methyl(propyl)amino)imidazo[1,2-b]pyridazin-3-yl)-1H-indazol-3-yl)ethan-1-one]	72	6000		6000	< 1	> 4.48	1.3	6.3									10	

Continued, in another order:

HuR N/C Imax % Inh ([1]; Concn 50 uM) [%]	IC50 [1, 12] [nM]	aqueous solubility (in words) [3]	IC50 [1, 13] [nM]	solubility [3] [µM]	logD [4]	half-life [5] [min]	half-life [6] [min]	HuR N/C Imax % Inh ([1]; Concn 100 uM) [%]	HuR inhibition activity (in words) [1]	IC50 [7] [nM]	IC50 [8] [nM]	IC50 [9] [nM]	IC50 [10] [nM]	IC50 [11] [nM]	HuR IC50 [1, 13]	SMILES	inhibition at 50 µM [2] [%]	inhibition at 100 µM ([2]; Concn 100 uM) [%]
93	1200		1200	79.6 (≈ 27.7 µg/mL)	2.9	8.1	11.6									Cn1ncc2ccc(-c3cnc4ccc(NC5CCOCC5)nn34)cc21 [Compound 20]	35	
92	1100		1100	3.4 (≈ 1.23 µg/mL)	> 4.06	8.7	7.2		potent activity							CC1(C)CC(Nc2ccc3ncc(-c4ccc5[nH]ncc5c4)n3n2)CCO1 (stereo not shown) [Compound 45, N-(2,2-Dimethyltetrahydro-2H-pyran-4-yl)-3-(1H-indazol-5-yl)imidazo[1,2-b]pyridazin-6-amine]	25	
91	2100		2100	1 (≈ 0.368 µg/mL)	> 4.16	4.4	11.5									FC1(F)CCC(Nc2ccc3ncc(-c4ccc5[nH]ncc5c4)n3n2)CC1 [Compound 46, N-(4,4-Difluorocyclohexyl)-3-(1H-indazol-5-yl)imidazo[1,2-b]pyridazin-6-amine]	17	
90	700		700	3.2 (≈ 0.936 µg/mL)		2.2	6.1									CCCNc1ccc2ncc(-c3ccc4[nH]ncc4c3)n2n1 [Compound 48]	29	
93	190		190	2.6 (≈ 0.864 µg/mL)	> 4.15	2.6	12.1									FC(F)(F)CNc1ccc2ncc(-c3ccc4[nH]ncc4c3)n2n1 [Compound 50, 3-(1H-Indazol-5-yl)-N-(2,2,2-trifluoroethyl)imidazo[1,2-b]pyridazin-6-amine]	26	
